Experimental data taken from patent US20230085307A1, “PYRIDAZINONE COMPOUND AND HERBICIDE” (NISSAN CHEMICAL CORPORATION, priority 2019, published 2023).

Tests used:
oval-leafed pondweed = assay: Test Example 2: herbicidal activity, application during weed generation under submerged conditions (Table 17, symbol C); format: in vivo, oval-leafed pondweed (Monochoria vaginalis); details: application during weed generation, submerged conditions
Summary of the method: (§1)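 Mixed weed seedlings in alluvial soil under a 4 cm water layer, greenhouse-grown at 25–30° C. Compound given as a diluted emulsion into the floodwater at the 1–2 leaf stage; response graded after three weeks.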

barnyard grass [1] = assay: Test Example 3: herbicidal effect by foliage application, Wagner pot (Table 18, symbol H); format: in vivo, barnyard grass (Echinochloa crus-galli); details: for herbicidal effect on H (barnyard grass), rating 0-5: 320 g/ha
Summary of the method: (§2)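 Plants were sown in alluvial soil held under 0.1–0.5 cm standing water and grown 14 days in a greenhouse at 25–30 °C. An emulsifiable formulation, water-diluted to the set dose, was then sprayed onto the foliage, and effects were scored three weeks later using previously defined criteria.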

Japanese bulrush = assay: Test Example 1: herbicidal activity, application before weed generation under submerged conditions (Table 16, symbol B); format: in vivo, Japanese bulrush (Schoenoplectus juncoides); details: for Herbicidal effect on B: Japanese bulrush (grade 0-5): 320 g/ha applied herbicide
Summary of the method: (§3)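 Submerged Wagner pots (alluvial soil, 4 cm water) sown with weed seeds and planted with 2.5-leaf rice seedlings; emulsifiable concentrate diluted in water applied to water surface on sowing day. Held in greenhouse at 25-30 °C; injury scored 0-5 by herbicidal rate after three weeks.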

green foxtail = assay: Test Example 5: herbicidal effect by foliage application, plastic box (Table 20, symbol G); format: in vivo, green foxtail (Setaria viridis); details: foliage application; for effect on green foxtail (G): 320 g/ha, 3 weeks after application
Summary of the method: (§4)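 Sow seeds spot-wise in sterilized diluvial soil; cover with ~1.5 cm soil. Grow 14 days in greenhouse, 25° C. to 30° C. Spray foliage with emulsion diluted to predetermined amount. Rate effect after 3 weeks.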

late watergrass [2] = assay: Test Example 1: herbicidal activity, application before weed generation under submerged conditions (Table 16, symbol A); format: in vivo, late watergrass (Echinochloa oryzicola); details: for Herbicidal effect on A: late watergrass (grade 0-5): 320 g/ha applied herbicide
Summary of the method: as §3

rice flat sedge = assay: Test Example 3: herbicidal effect by foliage application, Wagner pot (Table 18, symbol E); format: in vivo, rice flat sedge (Cyperus iria); details: for herbicidal effect on E (rice flat sedge), rating 0-5: 320 g/ha
Summary of the method: as §2

Chinese sprangletop = assay: Test Example 3: herbicidal effect by foliage application, Wagner pot (Table 18, symbol D); format: in vivo, chinese sprangletop (Leptochloa chinensis); details: for herbicidal effect on D (Chinese sprangletop), rating 0-5: 320 g/ha
Summary of the method: as §2

windgrass = assay: Test Example 4: herbicidal effect by soil treatment (Table 19, symbol L); format: in vivo, windgrass (Apera spica-venti); details: for herbicidal effect rating, L: windgrass: 320 g/ha
Summary of the method: (§5)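 Soil-surface application: an emulsion agent diluted with water to the predetermined dose is sprayed uniformly over seeds lying under roughly 1.5 cm of sterilized diluvial soil. Boxes stay in a greenhouse at 25° C. to 30° C. Three weeks later, each species is graded on previously defined criteria.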

Italian ryegrass [3] = assay: Test Example 5: herbicidal effect by foliage application, plastic box (Table 20, symbol K); format: in vivo, Italian ryegrass (Lolium multiflorum); details: foliage application; for effect on Italian ryegrass (K): 3 weeks after application
Summary of the method: as §4

late watergrass [4] = assay: Test Example 2: herbicidal activity, application during weed generation under submerged conditions (Table 17, symbol A); format: in vivo, late watergrass (Echinochloa oryzicola); details: application during weed generation, submerged conditions
Summary of the method: as §1

redroot pigweed [5] = assay: Test Example 4: herbicidal effect by soil treatment (Table 19, symbol N); format: in vivo, redroot pigweed (Amaranthus retroflexus); details: for herbicidal effect rating, N: redroot pigweed: 320 g/ha
Summary of the method: as §5

Italian ryegrass [6] = assay: Test Example 4: herbicidal effect by soil treatment (Table 19, symbol K); format: in vivo, Italian ryegrass (Lolium multiflorum); details: for herbicidal effect rating, K: Italian ryegrass: 320 g/ha
Summary of the method: as §5

wild oat = assay: Test Example 5: herbicidal effect by foliage application, plastic box (Table 20, symbol I); format: in vivo, wild oat (Avena fatua); details: foliage application; for effect on wild oat (I): 3 weeks after application
Summary of the method: as §4

blackgrass = assay: Test Example 5: herbicidal effect by foliage application, plastic box (Table 20, symbol J); format: in vivo, blackgrass (Alopecurus myosuroides); details: foliage application; for effect on blackgrass (J): 3 weeks after application
Summary of the method: as §4

barnyard grass [7] = assay: Test Example 5: herbicidal effect by foliage application, plastic box (Table 20, symbol H); format: in vivo, barnyard grass (Echinochloa crus-galli); details: foliage application; for effect on barnyard grass (H): 3 weeks after application
Summary of the method: as §4

redroot pigweed [8] = assay: Test Example 5: herbicidal effect by foliage application, plastic box (Table 20, symbol N); format: in vivo, redroot pigweed (Amaranthus retroflexus); details: foliage application, 320 g/ha, evaluated three weeks after application
Summary of the method: as §4

[9] = amount of applied herbicide 320 g/ha
[10] = 320 g/ha, evaluated three weeks after application
[11] = amount of applied herbicide 246 g/ha
[12] = 246 g/ha, three weeks after application

Compound	herbicidal effect rating, C: oval-leafed pondweed (oval-leafed pondweed; AAH 320 g/ha)	herbicidal effect on H (barnyard grass), rating 0-5 (barnyard grass [1])	Herbicidal effect on B: Japanese bulrush (grade 0-5) (Japanese bulrush)	effect on green foxtail (G) (green foxtail)	Herbicidal effect on A: late watergrass (grade 0-5) (late watergrass [2])	herbicidal effect on E (rice flat sedge), rating 0-5 (rice flat sedge)	herbicidal effect on D (Chinese sprangletop), rating 0-5 (Chinese sprangletop)	herbicidal effect rating, L: windgrass (windgrass)	effect on Italian ryegrass (K) (Italian ryegrass [3]; 320 g/ha)	herbicidal effect rating, A: late watergrass (late watergrass [4]; AAH 320 g/ha)	herbicidal effect rating, N: redroot pigweed (redroot pigweed [5])	herbicidal effect rating, K: Italian ryegrass (Italian ryegrass [6])	effect on wild oat (I) (wild oat; 320 g/ha)	effect on blackgrass (J) (blackgrass; 320 g/ha)	effect on barnyard grass (H) (barnyard grass [7]; 320 g/ha)	further results
CCCCCOc1ccc(-c2sc3ccc(F)cc3c2-c2c(OC(=O)CCC)c(C)nn(C)c2=O)cc1 [2-038]	0 (Herbicidal rate of 5% or less (almost no effect))	4 (Herbicidal rate of 70% or more and less than 90%)	0 (Herbicidal rate of 5% or less (almost no effect))	1 (Herbicidal rate of 5% or more and less than 20%)	3 (Herbicidal rate of 40% or more and less than 70%)	4 (Herbicidal rate of 70% or more and less than 90%)	4 (Herbicidal rate of 70% or more and less than 90%)	0 (Herbicidal rate of 5% or less (almost no effect))	0 (Herbicidal rate of 5% or less (almost no effect))	2 (Herbicidal rate of 20% or more and less than 40%)	3 (Herbicidal rate of 40% or more and less than 70%)	0 (Herbicidal rate of 5% or less (almost no effect))	0 (Herbicidal rate of 5% or less (almost no effect))	0 (Herbicidal rate of 5% or less (almost no effect))	0 (Herbicidal rate of 5% or less (almost no effect))	
Cc1nn(C)c(=O)c(-c2c(-c3ccc(OC4CCCC4)cc3)sc3ccc(F)cc23)c1O [2-039]	2 (Herbicidal rate of 20% or more and less than 40%)	5 (Herbicidal rate of 90% or more (almost completely withered))	4 (Herbicidal rate of 70% or more and less than 90%)	5 (Herbicidal rate of 90% or more (almost completely withered))	3 (Herbicidal rate of 40% or more and less than 70%)	3 (Herbicidal rate of 40% or more and less than 70%)	5 (Herbicidal rate of 90% or more (almost completely withered))	0 (Herbicidal rate of 5% or less (almost no effect))	1 (Herbicidal rate of 5% or more and less than 20%)	0 (Herbicidal rate of 5% or less (almost no effect))	3 (Herbicidal rate of 40% or more and less than 70%)	0 (Herbicidal rate of 5% or less (almost no effect))	4 (Herbicidal rate of 70% or more and less than 90%)	1 (Herbicidal rate of 5% or more and less than 20%)	5 (Herbicidal rate of 90% or more (almost completely withered))	
CCCC(=O)Oc1c(C)nn(C)c(=O)c1-c1c(-c2ccccc2OC(F)(F)F)sc2ccc(F)cc12 [2-044]	3 (Herbicidal rate of 40% or more and less than 70%)	3 (Herbicidal rate of 40% or more and less than 70%)	0 (Herbicidal rate of 5% or less (almost no effect))	5 (Herbicidal rate of 90% or more (almost completely withered))	3 (Herbicidal rate of 40% or more and less than 70%)	5 (Herbicidal rate of 90% or more (almost completely withered))	2 (Herbicidal rate of 20% or more and less than 40%)	0 (Herbicidal rate of 5% or less (almost no effect))	0 (Herbicidal rate of 5% or less (almost no effect))	2 (Herbicidal rate of 20% or more and less than 40%)	5 (Herbicidal rate of 90% or more (almost completely withered))	0 (Herbicidal rate of 5% or less (almost no effect))	3 (Herbicidal rate of 40% or more and less than 70%)	0 (Herbicidal rate of 5% or less (almost no effect))	0 (Herbicidal rate of 5% or less (almost no effect))	
CCCCCOc1cccc(-c2sc3ccc(F)cc3c2-c2c(O)c(C)nn(C)c2=O)c1 [2-225]	0 (Herbicidal rate of 5% or less (almost no effect))		3 (Herbicidal rate of 40% or more and less than 70%)		0 (Herbicidal rate of 5% or less (almost no effect))					3 (Herbicidal rate of 40% or more and less than 70%)						herbicidal effect on H: barnyard grass (barnyard grass [1]; [9]): 4 (Herbicidal rate of 70% or more and less than 90%); herbicidal effect on E: rice flat sedge (rice flat sedge; [9]): 4 (Herbicidal rate of 70% or more and less than 90%); herbicidal effect on D: Chinese sprangletop (Chinese sprangletop; [9]): 3 (Herbicidal rate of 40% or more and less than 70%); herbicidal effect on L: windgrass (windgrass; [9]): 0 (Herbicidal rate of 5% or less (almost no effect)); herbicidal effect on K: Italian ryegrass (criteria 0-5) (Italian ryegrass [3]; [10]): 0 (Herbicidal rate of 5% or less (almost no effect)); herbicidal effect on N: redroot pigweed (criteria 0-5) (redroot pigweed [8]): 5 (Herbicidal rate of 90% or more (almost completely withered)); herbicidal effect on N: redroot pigweed (redroot pigweed [5]; [9]): 5 (Herbicidal rate of 90% or more (almost completely withered)); herbicidal effect on K: Italian ryegrass (Italian ryegrass [6]; [9]): 0 (Herbicidal rate of 5% or less (almost no effect)); herbicidal effect on I: wild oat (criteria 0-5) (wild oat; [10]): 0 (Herbicidal rate of 5% or less (almost no effect)); herbicidal effect on J: blackgrass (criteria 0-5) (blackgrass; [10]): 0 (Herbicidal rate of 5% or less (almost no effect)); herbicidal effect on H: barnyard grass (criteria 0-5) (barnyard grass [7]; [10]): 3 (Herbicidal rate of 40% or more and less than 70%)
CCCC(=O)Oc1c(C)nn(C)c(=O)c1-c1c(-c2ccc(F)cc2OCC)oc2ccc(C)cc12 [9-010]																herbicidal effect rating, C: oval-leafed pondweed (oval-leafed pondweed; AAH 246 g/ha): 2 (Herbicidal rate of 20% or more and less than 40%); Herbicidal effect on H (barnyard grass), foliage application (barnyard grass [1]; [11]): 4 (Herbicidal rate of 70% or more and less than 90%); Herbicidal effect, B: Japanese bulrush (Japanese bulrush; [11]): 3 (Herbicidal rate of 40% or more and less than 70%); herbicidal effect on green foxtail (G) (green foxtail; [12]): 2 (Herbicidal rate of 20% or more and less than 40%); Herbicidal effect, A: late watergrass (late watergrass [2]; [11]): 5 (Herbicidal rate of 90% or more (almost completely withered)); Herbicidal effect on E (rice flat sedge), foliage application (rice flat sedge; [11]): 4 (Herbicidal rate of 70% or more and less than 90%); Herbicidal effect on D (Chinese sprangletop), foliage application (Chinese sprangletop; [11]): 5 (Herbicidal rate of 90% or more (almost completely withered)); L: windgrass, herbicidal effect grade (windgrass; [11]): 0 (Herbicidal rate of 5% or less (almost no effect)); herbicidal effect on Italian ryegrass (K) (Italian ryegrass [3]; [12]): 0 (Herbicidal rate of 5% or less (almost no effect)); herbicidal effect rating, A: late watergrass (late watergrass [4]; AAH 246 g/ha): 0 (Herbicidal rate of 5% or less (almost no effect)); N: redroot pigweed, herbicidal effect grade (redroot pigweed [5]; [11]): 0 (Herbicidal rate of 5% or less (almost no effect)); K: Italian ryegrass, herbicidal effect grade (Italian ryegrass [6]; [11]): 0 (Herbicidal rate of 5% or less (almost no effect)); herbicidal effect on wild oat (I) (wild oat; [12]): 1 (Herbicidal rate of 5% or more and less than 20%); herbicidal effect on blackgrass (J) (blackgrass; [12]): 0 (Herbicidal rate of 5% or less (almost no effect)); herbicidal effect on barnyard grass (H) (barnyard grass [7]; [12]): 3 (Herbicidal rate of 40% or more and less than 70%)
